# In patent US6284789A, “Formation and composition of new optically active compounds” (The Research Foundation of State University of New York, priority 1999, dated 2001):
# Like-named read-outs stand apart in the source and are kept apart here.
# How the values were obtained:
# [1] = system: standard panel of 12 human tumor cell lines; test: Hollow fiber assay, preliminary in vivo testing; parameters: species or system human tumor cell lines in mice; conditions: i.p. injection once daily, 4 doses, 2 dose levels
# Experimental: Preliminary in vivo testing was conducted by the hollow fiber assay on the oxabicyclooctane and the dioxatricyclodecanes identified as sufficiently active in the large scale in vitro cell screens. Each compound is tested against a standard panel of 12 human tumor cell lines, including NCI-H23, […], MDA-MB-231, MDA-MB-435, SW-620, COLO 205, LOX IMVI, UACC-62, OVCAR-3, OVCAR-5, U251, and SF-295. The cell lines are cultivated in RPMI-1640 containing 10% FBS and 2 mM glutamine. On the day preceding hollow fiber preparation, the cells are given a supplementation of fresh medium to maintain log phase growth. […] On the day of implantation, samples of each tumor cell line is quantitated for viable cell mass by a stable endpoint MTT assay so that the time 0 cell mass is known. Thus, the cytostatic and cytocidal capacities of the test compound can be assessed. […] Each agent is assessed by intraperitoneal injection at 2 dose levels with 3 mice/dose/experiment. […] The optical density of each sample is determined spectropphotomnetrically at 540 nm and the mean of each treatment group is calculated. The percent net cell growth in each treatment group is calculated and compared to the percent net cell growth in the vehicle treated controls. Each compound is assessed in a total of 4 experiments (3 cell lines/experiment×4 experiments=12 cell lines). […]
# [2] = system: 60 human tumor cell line screen; test: NCI 60 human tumor cell line screen, in vitro antiproliferative activity (sulforhodamine B assay); type: cell-based; conditions: for Percentage of cell lines affected at the given concentration: at the GI50 bound or range given on the same line of Table 3
# Experimental: The NCI […] Screening Procedure is described in Monks et al., J. Natl. Cancer Inst., 83: […], as are the origins and processing of the cell lines. In summary, cell suspensions that are diluted according to the particular cell type and the expected target cell density (5000-40,000 cells per well based on cell growth characteristics) are added by pipet (100 μL) into 96-well microtiter plates. Inoculates are allowed a preincubation period of 24 hours at 37° C. for stabilization. Dilutions at twice the intended test concentration were added at time zero in 100 μL aliquots to the microtiter plate wells. Usually, test compounds are evaluated at five 10-fold dilutions. In routine testing, the highest well concentration is 10^-4 M, but for the standard agents the highest well concentration used depends on the agent. Incubations last for 48 hours in 5% CO2 atmosphere and 100% relative humidity. The cells are assayed by using the sulforhodamine B assay. A plate reader is used to read the optical densities, and a microcomputer processes the optical densities into the special concentration parameters.
# [3] = system: antitumor activity; conditions: background; cited from earlier work
# [4] = system: cell division; conditions: background; cited from earlier work
# [5] = system: tubulin / microtubule assembly; conditions: background; cited from earlier work
# [6] = system: antiviral activity; conditions: background; cited from earlier work
# [7] = system: nucleoside transport in mammalian cells; conditions: background; cited from earlier work
# [8] = background; cited from earlier work
# [9] = system: leukemias and solid tumors; conditions: background; cited from earlier work
# [10] = system: tolpoisomerase II; conditions: increased single and double strand breaks in DNA, background; cited from earlier work
molecule,measurement,setting,value
COc1cc([C@]23OC[C@H](Cc4cc5c(cc42)OCO5)[C@@H]3CO)cc(OC)c1OC [oxabicyclooctane],"Intraperitoneal score, hollow fiber assay",[1]; i.p. fiber implants,14
same,"Subcutaneous score, hollow fiber assay",[1]; s.c. fiber implants,2
COc1ccc([C@]23OC[C@H](Cc4cc(OC)c(OC)cc42)[C@@H]3COC(C)=O)cc1OC [No. 6],Percentage of cell lines affected at the given concentration,[2],10%
COc1cc([C@]23OC[C@H](Cc4cc5c(cc42)OCO5)[C@@H]3CO)cc(OC)c1OC [No. 2],Percentage of cell lines with the GI50 range,[2]; GI50 ranging from less than 10^-8 to 10^-5 molar,26%
same,GI50,"[2]; observed for 26% of cell lines, read-out: GI50 range observed",0.01 to 10 µM
"COc1cc([C@H]2c3cc(O)c(OC)cc3C[C@@H]3C(=O)OC[C@H]23)ccc1O [BCON, β-conidendrin]",Antitumor / biological activity,[3],biologically inactive
"COc1cc([C@@H]2c3cc4c(cc3[C@H](O)[C@H]3COC(=O)[C@H]23)OCO4)cc(OC)c1OC [PT, podophyllotoxin]",Arrest of cell division,[4],arrest of cell division at the mitotic stage of the cell cycle
same,Antitumor / biological activity,[3],has antiviral and antitumor activity
same,Inhibition of microtubule assembly,[5],inhibiting the assembly of tubulin into microtubules
same,Antiviral activity,[6],has antiviral and antitumor activity
same,Inhibition of nucleoside transport,[7],inhibit nucleoside transport in mammalian cells
same,Toxicity,[8],highly toxic
"COc1cc([C@H]2c3cc(O)c(OC)cc3C[C@H]3C(=O)OC[C@H]23)ccc1O [ACON, α-Conidendrin]",Antitumor / biological activity,[3],biologically inactive
COc1cc([C@@H]2c3cc4c(cc3[C@H](O)[C@H]3COC(=O)[C@@H]23)OCO4)cc(OC)c1OC (stereo in doubt) [picropodophyllotoxin],Antitumor / biological activity,[3],biologically inactive
COc1cc([C@@H]2c3cc4c(cc3[C@@H](O[C@@H]3O[C@@H]5CO[C@@H](c6cccs6)O[C@H]5[C@H](O)[C@H]3O)[C@H]3COC(=O)[C@H]23)OCO4)cc(OC)c1O [teniposide],Inhibition of microtubule assembly,[5],not inhibitors of microtubule assembly
same,Effectiveness in the treatment of leukemias and solid tumors,[9],effective in the treatment of a variety of leukemias and solid tumors
same,Interaction and inhibition of topoisomerase II,[10],interaction and inhibition of the enzyme tolpoisomerase II
COc1cc([C@@H]2c3cc4c(cc3[C@@H](O[C@@H]3O[C@@H]5CO[C@@H](C)O[C@H]5[C@H](O)[C@H]3O)[C@H]3COC(=O)[C@H]23)OCO4)cc(OC)c1O [etoposide],Inhibition of microtubule assembly,[5],not inhibitors of microtubule assembly
same,Effectiveness in the treatment of leukemias and solid tumors,[9],effective in the treatment of a variety of leukemias and solid tumors
same,Interaction and inhibition of topoisomerase II,[10],interaction and inhibition of the enzyme tolpoisomerase II
7-acetoxy-6-methoxytetralin-1-one [compound 87],Percentage of cell lines affected at the given concentration,[2],93%
COc1ccc([C@]23OC[C@H](Cc4cc(OC)c(OC)cc42)[C@@H]3CO)cc1OC [No. 5],GI50,"[2]; 60 human tumor cell lines, 48 h, for the percentage of cell lines given beside it, read-out: GI50 (growth inhibition, 50%), GL50 [sic] in the source",> 100 µM
same,Percentage of cell lines affected at the given concentration,[2],96%
